{
  "source": "ChEMBL document CHEMBL5608179",
  "about": "“Triptonide induces apoptosis and inhibits the proliferation of ovarian cancer cells by activating the p38/p53 pathway and autophagy” (Bioorg Med Chem, 2024)",
  "key": {"A2780 [1]": {"tested_on": "A2780", "test": "Cytotoxicity against human A2780 cells assessed as cell viability measured after 48 hrs by MTT assay", "type": "functional, cell-based", "conditions": "A2780, 48 h"}, "A2780 [2]": {"tested_on": "A2780", "test": "Induction of apoptosis in human A2780 cells assessed as late apoptotic cells at 800 nM measured after 24 hrs by Annexin V-FITC/PI flow cytometry (reference value: 1.58%)", "type": "functional"}, "A2780 [3]": {"tested_on": "A2780", "test": "Induction of apoptosis in human A2780 cells assessed as necrotic cells at 800 nM measured after 24 hrs by Annexin V-FITC/PI flow cytometry (reference value: 0.18%)", "type": "functional"}, "A2780 [4]": {"tested_on": "A2780", "test": "Induction of apoptosis in human A2780 cells assessed as viable cells at 800 nM measured after 24 hrs by Annexin V-FITC/PI flow cytometry (reference value: 96.1%)", "type": "functional", "conditions": "read-out: Activity"}, "A2780 [5]": {"tested_on": "A2780", "test": "Induction of apoptosis in human A2780 cells assessed as early apoptotic cells at 800 nM measured after 24 hrs by Annexin V-FITC/PI flow cytometry (reference value: 2.17%)", "type": "functional"}, "SK-OV-3": {"tested_on": "SK-OV-3", "test": "Cytotoxicity against human SK-OV-3 cells assessed as cell viability measured after 48 hrs by MTT assay", "type": "functional, cell-based", "conditions": "SK-OV-3, 48 h"}, "Huh-7": {"tested_on": "Huh-7", "test": "Cytotoxicity against human Huh-7 cells assessed as cell viability measured after 48 hrs by MTT assay", "type": "functional, cell-based", "conditions": "Huh-7, 48 h"}, "A2780 [6]": {"tested_on": "A2780", "test": "Induction of apoptosis in human A2780 cells assessed as viable cells at 20 uM measured after 24 to 72 hrs by Annexin V-FITC/PI flow cytometry (reference value: 94.2%)", "type": "functional", "conditions": "time 24-72 hrs, read-out: Activity"}, "A2780 [7]": {"tested_on": "A2780", "test": "Induction of apoptosis in human A2780 cells assessed as early apoptotic cells at […] measured after 24 to 72 hrs by Annexin V-FITC/PI flow cytometry (reference value: 2.82%)", "type": "functional", "conditions": "time 24-72 hrs"}, "A2780 [8]": {"tested_on": "A2780", "test": "Induction of apoptosis in human A2780 cells assessed as late apoptotic cells at […] measured after 24 to 72 hrs by Annexin V-FITC/PI flow cytometry (reference value: 2.54%)", "type": "functional", "conditions": "time 24-72 hrs"}, "A2780 [9]": {"tested_on": "A2780", "test": "Induction of apoptosis in human A2780 cells assessed as necrotic cells at 20 uM measured after 24 to 72 hrs by Annexin V-FITC/PI flow cytometry (reference value: 0.39%)", "type": "functional", "conditions": "time 24-72 hrs"}, "A2780 [10]": {"tested_on": "A2780", "test": "Induction of cell cycle arrest in human A2780 cells assessed as accumulation of cells at G1 phase at 20 uM measured after 24 hrs by PI staining based Cell Cycle Analysis Kit (KeyGEN) (reference value: 54.2%)", "type": "functional"}, "A2780 [11]": {"tested_on": "A2780", "test": "Induction of cell cycle arrest in human A2780 cells assessed as accumulation of cells at S phase at 20 uM measured after 24 hrs by PI staining based Cell Cycle Analysis Kit (KeyGEN) (reference value: 15%)", "type": "functional"}, "A2780 [12]": {"tested_on": "A2780", "test": "Induction of cell cycle arrest in human A2780 cells assessed as accumulation of cells at G2 phase at 20 uM measured after 24 hrs by PI staining based Cell Cycle Analysis Kit (KeyGEN) (reference value: 24.5%)", "type": "functional"}},
  "data": [
    {"smiles": "C[C@@]1(C(=O)O)CC[C@]2(C)CC[C@]3(C)C4=CC(=O)c5c(cc(O)c(O)c5C=O)[C@]4(C)CC[C@@]3(C)[C@@H]2C1", "values": [
      {"measurement": "IC50", "setting": "A2780 [1]", "result": 10.1, "unit": "µM"}
    ]},
    {"smiles": "C[C@]12CCC[C@@]3(COC1=O)[C@@H]1CC[C@@H]4C[C@@]1(CC[C@@H]32)C[C@@]4(C)O", "values": [
      {"measurement": "IC50", "setting": "A2780 [1]", "result": "> 60", "unit": "µM"}
    ]},
    {"smiles": "C[C@@H]1[C@@]23CC[C@H]4[C@@](C)(CC[C@@]5(C)[C@@H]6C[C@](C)(C(=O)O)CC[C@]6(C)CC[C@]45C)[C@@H]2C[C@@H](O)[C@@]1(O)OC3", "values": [
      {"measurement": "IC50", "setting": "A2780 [1]", "result": "> 60", "unit": "µM"}
    ]},
    {"smiles": "CC(=O)OC[C@]12[C@H](OC(C)=O)[C@H](OC(C)=O)[C@@H]3[C@@H](OC(C)=O)[C@@]14O[C@@]3(C)COC(=O)c1cccnc1CC[C@H](C)C(=O)O[C@@H]([C@H](OC(=O)c1ccccc1)[C@@H]2OC(C)=O)[C@]4(C)O", "values": [
      {"measurement": "IC50", "setting": "A2780 [1]", "result": "> 60", "unit": "µM"}
    ]},
    {"smiles": "CC(=O)OC[C@]12[C@H](OC(C)=O)[C@H](OC(C)=O)[C@@H]3[C@@H](OC(C)=O)[C@@]14OC3(C)COC(=O)c1cccnc1CCC(C)C(=O)O[C@@H]([C@H](OC(=O)c1ccoc1)[C@@H]2OC(C)=O)C4(C)O", "note": "(stereo not given in full)", "values": [
      {"measurement": "IC50", "setting": "A2780 [1]", "result": "> 60", "unit": "µM"}
    ]},
    {"smiles": "CC1(C)[C@@H](O)CC[C@]2(C)[C@H]3CC=C4[C@@H]5C[C@@]6(C)C[C@H](OC6=O)[C@]5(C)CC[C@@]4(C)[C@]3(C)CC[C@@H]12", "note": "[3-EPIABRUSLACTONE A]", "values": [
      {"measurement": "IC50", "setting": "A2780 [1]", "result": "> 60", "unit": "µM"}
    ]},
    {"smiles": "CO/C1=C\\C(C)=C\\[C@@H](C)[C@@H](O)[C@@H](C)C/C(C)=C/C=C/[C@H](OC)[C@@H]([C@@H](C)[C@@H](O)[C@H](C)[C@@]2(O)C[C@@H](O)[C@H](C)[C@@H](C(C)C)O2)OC1=O", "note": "[BAFILOMYCIN A1]", "values": [
      {"measurement": "Activity", "setting": "A2780 [2]", "result": 2.27, "unit": "%"},
      {"measurement": "Activity", "setting": "A2780 [3]", "result": 0.43, "unit": "%"},
      {"measurement": "viability at 0.8 µM", "setting": "A2780 [4]", "result": 94, "unit": "%"},
      {"measurement": "Activity", "setting": "A2780 [5]", "result": 3.33, "unit": "%"}
    ]},
    {"smiles": "CC1=C(O)C(=O)C=C2C1=CC=C1[C@@]2(C)CC[C@@]2(C)[C@@H]3C[C@](C)(C(=O)O)CC[C@]3(C)CC[C@]12C", "note": "[CELASTROL]", "values": [
      {"measurement": "IC50", "setting": "A2780 [1]", "result": 1.57, "unit": "µM"}
    ]},
    {"smiles": "COc1cccc2c1C(=O)c1c(O)c3c(c(O)c1C2=O)C[C@@](O)(C(=O)CO)C[C@@H]3O[C@H]1C[C@H](N)[C@@H](O)[C@H](C)O1", "note": "[EPIRUBICIN]", "values": [
      {"measurement": "IC50", "setting": "A2780 [1]", "result": 1.28, "unit": "µM"},
      {"measurement": "IC50", "setting": "SK-OV-3", "result": 0.498, "unit": "µM"},
      {"measurement": "IC50", "setting": "Huh-7", "result": 0.495, "unit": "µM"}
    ]},
    {"smiles": "O=c1[nH]cc(F)c(=O)[nH]1", "note": "[FLUOROURACIL]", "values": [
      {"measurement": "IC50", "setting": "A2780 [1]", "result": 3.93, "unit": "µM"},
      {"measurement": "IC50", "setting": "SK-OV-3", "result": 10.8, "unit": "µM"},
      {"measurement": "IC50", "setting": "Huh-7", "result": 28.5, "unit": "µM"}
    ]},
    {"smiles": "C[S+]([O-])c1ccc(-c2nc(-c3ccc(F)cc3)c(-c3ccncc3)[nH]2)cc1", "note": "(stereo not given) [SB-203580]", "values": [
      {"measurement": "viability at 20 µM", "setting": "A2780 [6]", "result": 92, "unit": "%"},
      {"measurement": "Activity", "setting": "A2780 [7]", "result": 3.32, "unit": "%"},
      {"measurement": "Activity", "setting": "A2780 [8]", "result": 4.27, "unit": "%"},
      {"measurement": "Activity", "setting": "A2780 [9]", "result": 0.41, "unit": "%"},
      {"measurement": "Activity", "setting": "A2780 [10]", "result": 53.8, "unit": "%"},
      {"measurement": "Activity", "setting": "A2780 [11]", "result": 10, "unit": "%"},
      {"measurement": "Activity", "setting": "A2780 [12]", "result": 31.5, "unit": "%"}
    ]},
    {"smiles": "CC(C)c1ccc2c(c1O)CC[C@H]1C3=C(CC[C@]21C)C(=O)OC3", "note": "[TRIPTOPHENOLIDE]", "values": [
      {"measurement": "IC50", "setting": "A2780 [1]", "result": "> 60", "unit": "µM"}
    ]}
  ]
}
